Assay results as given in paper PMC5218480 (PLoS ONE, 2017).

Test system: MV-4-11 cells
Assay: Gene expression microarray analysis (Affymetrix PrimeView) and GSEA
Format: cell-based, human
Design: RFU PODN (11730768_x_at) / Fold change /veh PODN (11730768_x_at) / RFU LINC00158 (11744669_a_at) / Fold change /veh LINC00158 (11744669_a_at) / RFU DUSP10 (11751237_a_at) / Fold change /veh DUSP10 (11751237_a_at) / RFU ID3 (11757404_x_at) / Fold change /veh ID3 (11757404_x_at) / RFU PLEKHG5 (11737974_s_at) / Fold change /veh PLEKHG5 (11737974_s_at) / RFU LRRC4B (11730491_at) / Fold change /veh LRRC4B (11730491_at) / RFU GIMAP4 (11747438_a_at) / Fold change /veh GIMAP4 (11747438_a_at) / RFU KRT8 (11758183_x_at) / Fold change /veh KRT8 (11758183_x_at) / RFU CNN1 (11734310_a_at) / Fold change /veh CNN1 (11734310_a_at) / RFU VPS37D (11726825_at) / Fold change /veh VPS37D (11726825_at) / RFU C10orf10 (11716522_x_at) / Fold change /veh C10orf10 (11716522_x_at) / RFU KIR2DL2 /// KIR2DL4 /// KIR2DL5A /// KIR2DL5B /// KIR2DS1 /// KIR2DS2 /// KIR2DS3 /// KIR2DS4 /// KIR3DL3 /// KIR3DL3 /// KIR3DS1 (11738374_at) / Fold change /veh KIR2DL2 /// KIR2DL4 /// KIR2DL5A /// KIR2DL5B /// KIR2DS1 /// KIR2DS2 /// KIR2DS3 /// KIR2DS4 /// KIR3DL3 /// KIR3DL3 /// KIR3DS1 (11738374_at) / RFU C1QL1 (11718748_at) / Fold change /veh C1QL1 (11718748_at) / RFU TMPRSS4 (11747572_a_at) / Fold change /veh TMPRSS4 (11747572_a_at) / RFU HAMP (11756126_x_at) / Fold change /veh HAMP (11756126_x_at) / RFU RNFT2 (11725882_a_at) / Fold change /veh RNFT2 (11725882_a_at) / RFU NR4A2 (11747474_a_at) / Fold change /veh NR4A2 (11747474_a_at) / RFU ABCC12 (11746883_a_at) / Fold change /veh ABCC12 (11746883_a_at) / RFU TMEM136 (11760407_x_at) / Fold change /veh TMEM136 (11760407_x_at) / RFU CLDN22 /// WWC2 (11732394_at) / Fold change /veh CLDN22 /// WWC2 (11732394_at) / RFU HLA-DPB1 (11760878_x_at) / Fold change /veh HLA-DPB1 (11760878_x_at) / RFU SPINT1 (11716480_a_at) / Fold change /veh SPINT1 (11716480_a_at) / RFU GAP43 (11754022_s_at) / Fold change /veh GAP43 (11754022_s_at) / RFU A4GNT (11735810_at) / Fold change /veh A4GNT (11735810_at) / RFU PRB3 (11715151_x_at) / Fold change /veh PRB3 (11715151_x_at) / RFU TUBB4B (11761932_at) / Fold change /veh TUBB4B (11761932_at) / RFU CAPN14 (11732068_a_at) / Fold change /veh CAPN14 (11732068_a_at) / RFU TMCC2 (11721928_a_at) / Fold change /veh TMCC2 (11721928_a_at) / RFU IRGQ (11745062_a_at) / Fold change /veh IRGQ (11745062_a_at) / RFU FAM174B (11720279_a_at) / Fold change /veh FAM174B (11720279_a_at) / RFU TMPRSS4 (11748680_a_at) / Fold change /veh TMPRSS4 (11748680_a_at) / RFU FAM212B (11763350_a_at) / Fold change /veh FAM212B (11763350_a_at) / RFU PLEKHG5 (11743358_a_at) / Fold change /veh PLEKHG5 (11743358_a_at) / RFU ZSCAN30 (11745921_a_at) / Fold change /veh ZSCAN30 (11745921_a_at) / RFU CMKLR1 (11741424_a_at) / Fold change /veh CMKLR1 (11741424_a_at) / RFU LOC101060620 /// MAPK8IP1 (11723275_at) / Fold change /veh LOC101060620 /// MAPK8IP1 (11723275_at) / RFU SPTSSB (11747773_x_at) / Fold change /veh SPTSSB (11747773_x_at) / RFU PRSS12 (11739890_at) / Fold change /veh PRSS12 (11739890_at) / RFU BIN1 (11741810_x_at) / Fold change /veh BIN1 (11741810_x_at) / RFU WNT11 (11732464_a_at) / Fold change /veh WNT11 (11732464_a_at) / RFU C10orf10 (11716521_a_at) / Fold change /veh C10orf10 (11716521_a_at) / RFU C5orf56 (11738089_at) / Fold change /veh C5orf56 (11738089_at) / RFU CYB561 (11721691_x_at) / Fold change /veh CYB561 (11721691_x_at) / RFU ANKRD19P (11752326_a_at) / Fold change /veh ANKRD19P (11752326_a_at) / RFU OR2T12 /// OR2T33 /// OR2T8 (11738714_s_at) / Fold change /veh OR2T12 /// OR2T33 /// OR2T8 (11738714_s_at) / RFU VCAN (11748164_a_at) / Fold change /veh VCAN (11748164_a_at) / RFU JSRP1 (11732532_at) / Fold change /veh JSRP1 (11732532_at) / RFU KRTAP10-11 (11738290_x_at) / Fold change /veh KRTAP10-11 (11738290_x_at) / RFU MYO3A (11730013_a_at) / Fold change /veh MYO3A (11730013_a_at) / RFU EBF3 (11725865_a_at) / Fold change /veh EBF3 (11725865_a_at) / RFU CAMK2N1 (11719241_x_at) / Fold change /veh CAMK2N1 (11719241_x_at) / RFU C5orf56 (11738088_a_at) / Fold change /veh C5orf56 (11738088_a_at) / RFU OLFML3 (11715873_a_at) / Fold change /veh OLFML3 (11715873_a_at) / RFU LOC100653217 /// NTM (11731650_a_at) / Fold change /veh LOC100653217 /// NTM (11731650_a_at) / RFU MAPK11 (11762145_a_at) / Fold change /veh MAPK11 (11762145_a_at) / RFU FIZ1 (11724087_x_at) / Fold change /veh FIZ1 (11724087_x_at) / RFU OASL (11726364_x_at) / Fold change /veh OASL (11726364_x_at) / RFU SOX15 (11748057_x_at) / Fold change /veh SOX15 (11748057_x_at) / RFU CD79A (11719716_a_at) / Fold change /veh CD79A (11719716_a_at) / RFU HIST1H1D (11736915_at) / Fold change /veh HIST1H1D (11736915_at) / RFU CASKIN2 (11723855_a_at) / Fold change /veh CASKIN2 (11723855_a_at) / RFU LOC730098 (11760151_x_at) / Fold change /veh LOC730098 (11760151_x_at) / RFU OR4N2 (11742367_at) / Fold change /veh OR4N2 (11742367_at) / RFU PRRT2 (11749266_a_at) / Fold change /veh PRRT2 (11749266_a_at) / RFU SNX32 (11753110_a_at) / Fold change /veh SNX32 (11753110_a_at) / RFU CDHR5 (11726645_a_at) / Fold change /veh CDHR5 (11726645_a_at) / RFU RCAN1 (11760418_a_at) / Fold change /veh RCAN1 (11760418_a_at) / RFU FAM167A (11723789_a_at) / Fold change /veh FAM167A (11723789_a_at) / RFU FAM26E (11764081_at) / Fold change /veh FAM26E (11764081_at) / RFU ISYNA1 (11749810_s_at) / Fold change /veh ISYNA1 (11749810_s_at) / RFU ACY1 (11761880_at) / Fold change /veh ACY1 (11761880_at) / RFU 11764098_at / Fold change /veh 11764098_at / RFU SAMD14 (11745864_x_at) / Fold change /veh SAMD14 (11745864_x_at) / RFU NPB (11741838_a_at) / Fold change /veh NPB (11741838_a_at) / RFU TMPRSS6 (11731388_a_at) / Fold change /veh TMPRSS6 (11731388_a_at) / RFU KRTAP10-2 (11738614_at) / Fold change /veh KRTAP10-2 (11738614_at) / RFU ARHGAP8 /// PRR5-ARHGAP8 (11727945_x_at) / Fold change /veh ARHGAP8 /// PRR5-ARHGAP8 (11727945_x_at) / RFU KRTAP5-7 /// NADSYN1 (11734609_at) / Fold change /veh KRTAP5-7 /// NADSYN1 (11734609_at) / RFU RASL12 (11751679_a_at) / Fold change /veh RASL12 (11751679_a_at) / RFU CDKN2B (11736163_a_at) / Fold change /veh CDKN2B (11736163_a_at) / RFU PRF1 (11729649_at) / Fold change /veh PRF1 (11729649_at) / RFU, ZNF638 /// ZNF638-IT1 / Fold change vs veh, ZNF638 /// ZNF638-IT1 / RFU, PANK3 / Fold change vs veh, PANK3 / RFU, SH3YL1 / Fold change vs veh, SH3YL1 / RFU, ZEB2 / Fold change vs veh, ZEB2 / RFU, NRIP1 / Fold change vs veh, NRIP1 / RFU, PTTG1IP / Fold change vs veh, PTTG1IP / RFU, CAPN2 / Fold change vs veh, CAPN2 / RFU, MED14 / Fold change vs veh, MED14 / RFU, SNORA58 / Fold change vs veh, SNORA58 / RFU, C1orf63 / Fold change vs veh, C1orf63 / RFU, LRRFIP1 / Fold change vs veh, LRRFIP1 / RFU, NDUFAF7 / Fold change vs veh, NDUFAF7 / RFU, SLC12A2 / Fold change vs veh, SLC12A2 / RFU, IBTK / Fold change vs veh, IBTK / RFU, ESF1 / Fold change vs veh, ESF1 / Fold change vs veh, TMEM50B / RFU, TAOK1 / Fold change vs veh, TAOK1 / RFU, ACBD3 / Fold change vs veh, ACBD3 / RFU, TMA16 / Fold change vs veh, TMA16 / RFU, RWDD3 / Fold change vs veh, RWDD3 / RFU, BCAT1 / Fold change vs veh, BCAT1 / RFU, EDEM3 / Fold change vs veh, EDEM3 / RFU, TMEM33 / Fold change vs veh, TMEM33 / RFU, WDR75 / Fold change vs veh, WDR75 / RFU, AHCTF1 / Fold change vs veh, AHCTF1 / RFU, TFRC / Fold change vs veh, TFRC / RFU, ZDHHC17 / Fold change vs veh, ZDHHC17 / RFU, NOM1 / Fold change vs veh, NOM1 / RFU, ARL8B / Fold change vs veh, ARL8B / RFU, ZBTB11 / Fold change vs veh, ZBTB11 / RFU, TAMM41 / Fold change vs veh, TAMM41 / RFU, KIAA1704 /// LOC100996395 / Fold change vs veh, KIAA1704 /// LOC100996395 / RFU, ING1 / Fold change vs veh, ING1 / RFU, TRMT61B / Fold change vs veh, TRMT61B / RFU, FUBP3 / Fold change vs veh, FUBP3 / RFU, TP53 / Fold change vs veh, TP53 / RFU, TNKS2 / Fold change vs veh, TNKS2 / RFU, ZFP14 / Fold change vs veh, ZFP14 / RFU, ACTR2 / Fold change vs veh, ACTR2 / RFU, PPP3R1 / Fold change vs veh, PPP3R1 / RFU, PIK3R1 / Fold change vs veh, PIK3R1 / RFU, HNRNPA1 / Fold change vs veh, HNRNPA1 / RFU, RNF170 / Fold change vs veh, RNF170 / RFU, ZNF28 / Fold change vs veh, ZNF28 / RFU, RNGTT / Fold change vs veh, RNGTT / RFU, OGT / Fold change vs veh, OGT / RFU, BRD1 / Fold change vs veh, BRD1 / RFU, MARS / Fold change vs veh, MARS / RFU, ZNF655 / Fold change vs veh, ZNF655 / RFU, FAHD1 / Fold change vs veh, FAHD1 / RFU, BDP1 / Fold change vs veh, BDP1 / RFU, LRRCC1 / Fold change vs veh, LRRCC1 / RFU, ARID1A / Fold change vs veh, ARID1A / RFU, ZNF146 / Fold change vs veh, ZNF146 / RFU, ZNF330 / Fold change vs veh, ZNF330 / RFU, GPN3 / Fold change vs veh, GPN3 / RFU, C9orf123 / Fold change vs veh, C9orf123 / RFU, N4BP2L2 / Fold change vs veh, N4BP2L2 / RFU, ARFIP1 / Fold change vs veh, ARFIP1 / RFU, FAM179B / Fold change vs veh, FAM179B / RFU, BCL10 / Fold change vs veh, BCL10 / RFU, UHRF1BP1L / Fold change vs veh, UHRF1BP1L / RFU, BET1 / Fold change vs veh, BET1 / RFU, CNOT2 / Fold change vs veh, CNOT2 / RFU, ZNF268 / Fold change vs veh, ZNF268 / Fold change vs veh, ZNF507 / RFU, DGCR2 / Fold change vs veh, DGCR2 / RFU, WDSUB1 / Fold change vs veh, WDSUB1 / Fold change vs veh, HSP90B1 /// MIR3652 / RFU, ADSS / Fold change vs veh, ADSS / RFU, GK / Fold change vs veh, GK / RFU, ZNF148 / Fold change vs veh, ZNF148 / RFU, TAF9 / Fold change vs veh, TAF9 / RFU, SLC1A5 / Fold change vs veh, SLC1A5 / RFU, SLMO2 / Fold change vs veh, SLMO2 / RFU, ABCC4 / Fold change vs veh, ABCC4 / RFU, LOC101060439 /// RAP1B / Fold change vs veh, LOC101060439 /// RAP1B / RFU, RFX7 / Fold change vs veh, RFX7 / RFU, GTPBP10 / Fold change vs veh, GTPBP10 / RFU, CNEP1R1 / Fold change vs veh, CNEP1R1 / RFU, BIVM-ERCC5 /// ERCC5 / Fold change vs veh, BIVM-ERCC5 /// ERCC5 / RFU, ILF3 / Fold change vs veh, ILF3 / RFU 11762660_at / Fold change /veh 11762660_at / RFU VCAN (11757783_s_at) / Fold change /veh VCAN (11757783_s_at) / RFU DDX43 (11728927_at) / Fold change /veh DDX43 (11728927_at) / RFU KRT8 (11758188_x_at) / Fold change /veh KRT8 (11758188_x_at) / RFU NKD1 (11759106_at) / Fold change /veh NKD1 (11759106_at) / RFU SRD5A1 (11742802_a_at) / Fold change /veh SRD5A1 (11742802_a_at) / RFU TPSAB1 /// TPSB2 (11721975_s_at) / Fold change /veh TPSAB1 /// TPSB2 (11721975_s_at) / RFU GSTM3 (11746129_a_at) / Fold change /veh GSTM3 (11746129_a_at) / RFU IL23R (11737362_x_at) / Fold change /veh IL23R (11737362_x_at) / RFU TMEM51 (11727254_a_at) / Fold change /veh TMEM51 (11727254_a_at) / RFU PIWIL2 (11732686_x_at) / Fold change /veh PIWIL2 (11732686_x_at) / RFU ORM1 (11744905_x_at) / Fold change /veh ORM1 (11744905_x_at) / RFU CCDC152 (11743942_at) / Fold change /veh CCDC152 (11743942_at) / RFU ECM1 (11717891_a_at) / Fold change /veh ECM1 (11717891_a_at) / RFU IL23R (11748794_a_at) / Fold change /veh IL23R (11748794_a_at) / RFU TNFAIP8L3 (11732012_x_at) / Fold change /veh TNFAIP8L3 (11732012_x_at) / RFU MBOAT4 (11741988_at) / Fold change /veh MBOAT4 (11741988_at) / RFU 11764193_at / Fold change /veh 11764193_at / RFU TMEM53 (11763286_at) / Fold change /veh TMEM53 (11763286_at) / RFU MAGEB2 (11727129_at) / Fold change /veh MAGEB2 (11727129_at) / RFU TMEM200A (11744735_a_at) / Fold change /veh TMEM200A (11744735_a_at) / RFU CCDC152 (11751479_a_at) / Fold change /veh CCDC152 (11751479_a_at) / RFU FAM211A (11726209_a_at) / Fold change /veh FAM211A (11726209_a_at) / RFU RGS16 (11746705_a_at) / Fold change /veh RGS16 (11746705_a_at) / RFU VCAN (11755009_s_at) / Fold change /veh VCAN (11755009_s_at) / RFU RHOB (11743442_s_at) / Fold change /veh RHOB (11743442_s_at) / RFU RGS16 (11720943_a_at) / Fold change /veh RGS16 (11720943_a_at) / RFU RGS16 (11720944_at) / Fold change /veh RGS16 (11720944_at) / RFU, VPS4B / Fold change vs veh, VPS4B / RFU, CREB1 / Fold change vs veh, CREB1 / RFU, DNAJC13 / Fold change vs veh, DNAJC13 / RFU, GNAQ / Fold change vs veh, GNAQ / RFU, CDK5R1 / Fold change vs veh, CDK5R1 / RFU, ZRANB3 / Fold change vs veh, ZRANB3 / RFU, CUL4A / Fold change vs veh, CUL4A / RFU, CCNY / Fold change vs veh, CCNY / RFU, UFL1 / Fold change vs veh, UFL1 / RFU, COG3 / Fold change vs veh, COG3 / RFU, DIAPH2 / Fold change vs veh, DIAPH2 / RFU, SKA2 / Fold change vs veh, SKA2 / RFU, AFF3 / Fold change vs veh, AFF3 / RFU, LMF1 / Fold change vs veh, LMF1 / RFU, IPO11 / Fold change vs veh, IPO11 / RFU, DFFB / Fold change vs veh, DFFB / RFU, FOXP1 / Fold change vs veh, FOXP1 / RFU, CARD8 / Fold change vs veh, CARD8 / RFU, STRN3 / Fold change vs veh, STRN3 / RFU, ADK / Fold change vs veh, ADK / RFU, RASSF2 / Fold change vs veh, RASSF2 / RFU, WIPF1 / Fold change vs veh, WIPF1 / RFU, LARP1B / Fold change vs veh, LARP1B / RFU, RASA1 / Fold change vs veh, RASA1 / RFU, RB1 / Fold change vs veh, RB1 / RFU, PPFIA1 / Fold change vs veh, PPFIA1 / RFU, MAT2A / Fold change vs veh, MAT2A / RFU, CCT5 / Fold change vs veh, CCT5 / RFU, WDR92 / Fold change vs veh, WDR92 / RFU, CUX1 / Fold change vs veh, CUX1 / RFU, TTC7A / Fold change vs veh, TTC7A / RFU, TMEM135 / Fold change vs veh, TMEM135 / RFU, DEPTOR / Fold change vs veh, DEPTOR / RFU, CPM / Fold change vs veh, CPM / RFU, DNAJB6 / Fold change vs veh, DNAJB6 / RFU, CACNA2D3 / Fold change vs veh, CACNA2D3 / RFU, DTX4 / Fold change vs veh, DTX4 / RFU, TFCP2 / Fold change vs veh, TFCP2 / RFU, GMCL1 /// GMCL1P1 / Fold change vs veh, GMCL1 /// GMCL1P1 / RFU, AEBP2 / Fold change vs veh, AEBP2 / RFU, SNHG1 /// SNORD22 /// SNORD25 /// SNORD26 /// SNORD27 /// SNORD28 /// SNORD29 /// SNORD31 / Fold change vs veh, SNHG1 /// SNORD22 /// SNORD25 /// SNORD26 /// SNORD27 /// SNORD28 /// SNORD29 /// SNORD31 / Fold change (Aza/veh), C12orf56 (ProbeSet 11735607_a_at) / Fold change (ACY-1035/veh), C12orf56 (ProbeSet 11735607_a_at) / Fold change (Aza/veh), FGFR1OP (ProbeSet 11751329_s_at) / Fold change (ACY-1035/veh), FGFR1OP (ProbeSet 11751329_s_at) / Fold change (Aza/veh), VPS36 (ProbeSet 11739960_a_at) / Fold change (ACY-1035/veh), VPS36 (ProbeSet 11739960_a_at) / RFU SYPL1 (11715823_x_at) / Fold change /veh SYPL1 (11715823_x_at) / RFU IGFBP7 (11715501_s_at) / Fold change /veh IGFBP7 (11715501_s_at) / RFU REEP3 (11722064_at) / Fold change /veh REEP3 (11722064_at) / RFU IGLL1 (11728026_x_at) / Fold change /veh IGLL1 (11728026_x_at): dose or concentration left out as unconfirmed
Details: ProbeSet 11715478_a_at; LIST B

Nc1ncn([C@@H]2O[C@H](CO)[C@@H](O)[C@H]2O)c(=O)n1 [azacitidine]
Fold change vs veh, TFRC: 0.85
